Assay results as given in ChEMBL document CHEMBL1201862, “PubChem BioAssay data set” (2004).
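Cultured in 96-well plates, cells were exposed to test compound for 48 hours across five concentrations. Abbreviation: GI50, concentration required for 50% inhibition of growth.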 Calls of active or inactive are those of the source. No stated cut-off is given here; in the data, active = GI50 up to about 1.1 µM and inactive = higher.

Key:
Assay in all cases: DTP human tumour cell line panel, 48 h
786-0 = system: 786-0
BT-549 = system: BT-549
CCRF-CEM = system: CCRF-CEM
COLO 205 = system: COLO 205
DU-145 = system: DU-145
HCT-15 = system: HCT-15
HOP-62 = system: HOP-62
HOP-92 = system: HOP-92
K562 = system: K562
MCF7 = system: MCF7
MDA-MB-231 = system: MDA-MB-231
Malme-3M = system: Malme-3M
NCI-H23 = system: NCI-H23
PC-3 = system: PC-3
SF-539 = system: SF-539
SK-MEL-5 = system: SK-MEL-5
SNB-75 = system: SNB-75
SW-620 = system: SW-620
UACC-257 = system: UACC-257
OVCAR-4 = system: OVCAR-4

| SMILES | GI50 (786-0) | GI50 (BT-549) | GI50 (CCRF-CEM) | GI50 (COLO 205) | GI50 (DU-145) | GI50 (HCT-15) [µM] | GI50 (HOP-62) | GI50 (HOP-92) | GI50 (K562) | GI50 (MCF7) | GI50 (MDA-MB-231) | GI50 (Malme-3M) | GI50 (NCI-H23) | GI50 (PC-3) | GI50 (SF-539) | GI50 (SK-MEL-5) | GI50 (SNB-75) | GI50 (SW-620) | GI50 (UACC-257) | GI50 (OVCAR-4) |
| --- | --- | --- | --- | --- | --- | --- | --- | --- | --- | --- | --- | --- | --- | --- | --- | --- | --- | --- | --- | --- |
| CC(C)(C)OC(=O)NC(Cc1ccc(OCc2ccccc2)cn1)C(=O)N1CCCCC1 (centres undefined) | 56 µM (inactive) | 24.5 µM (inactive) | 31.8 µM (inactive) | 18.6 µM (inactive) | 33 µM (inactive) | 37.6 | 49.9 µM (inactive) | 39.9 µM (inactive) | 31.7 µM (inactive) | 31.6 µM (inactive) | 43.4 µM (inactive) | 40.5 µM (inactive) | 31.1 µM (inactive) | 22.2 µM (inactive) | 41.3 µM (inactive) | 16.4 µM (inactive) | 20.5 µM (inactive) | 89.3 µM (inactive) | 19.6 µM (inactive) | – |
| CC1=CC[C@](C)(O)[C@@]2(C)CC[C@H]3C(=C(C)C)C(=O)C[C@]3(C)C[C@H]12 | 15.7 µM (inactive) | 13.8 µM (inactive) | 10.8 µM (inactive) | 45.5 µM (inactive) | > 50 µM (inactive) | 12.3 | 42.2 µM (inactive) | > 50 µM (inactive) | 9.2 µM (inactive) | 31.3 µM (inactive) | > 50 µM (inactive) | – | 34.1 µM (inactive) | 21.4 µM (inactive) | > 50 µM (inactive) | 27.8 µM (inactive) | 26.5 µM (inactive) | 27 µM (inactive) | > 50 µM (inactive) | > 50 µM (inactive) |
| Cc1cccc2c1CC(C1OC(=O)c3ccccc31)C2=O (centres undefined) | > 100 µM (inactive) | > 100 µM (inactive) | > 100 µM (inactive) | > 100 µM (inactive) | > 100 µM (inactive) | > 100 | > 100 µM (inactive) | > 100 µM (inactive) | > 100 µM (inactive) | > 100 µM (inactive) | > 100 µM (inactive) | > 100 µM (inactive) | > 100 µM (inactive) | > 100 µM (inactive) | > 100 µM (inactive) | > 100 µM (inactive) | > 100 µM (inactive) | > 100 µM (inactive) | > 100 µM (inactive) | > 100 µM (inactive) |
| O=C(O)C(=O)Cc1ccc2c(c1)OCO2 | > 100 µM (inactive) | > 100 µM (inactive) | 18.9 µM (inactive) | > 100 µM (inactive) | > 100 µM (inactive) | > 100 | > 100 µM (inactive) | > 100 µM (inactive) | > 100 µM (inactive) | > 100 µM (inactive) | > 100 µM (inactive) | – | > 100 µM (inactive) | > 100 µM (inactive) | > 100 µM (inactive) | > 100 µM (inactive) | > 100 µM (inactive) | > 100 µM (inactive) | > 100 µM (inactive) | > 100 µM (inactive) |
| Cc1ccc(N)c(S)c1 | 16.1 µM (inactive) | 18.6 µM (inactive) | 18 µM (inactive) | 22.7 µM (inactive) | 15.7 µM (inactive) | 16.7 | 21.5 µM (inactive) | 16.6 µM (inactive) | 28.6 µM (inactive) | 18.5 µM (inactive) | 17.1 µM (inactive) | 30.5 µM (inactive) | 17.7 µM (inactive) | 15.3 µM (inactive) | 17.5 µM (inactive) | 16.5 µM (inactive) | 21.7 µM (inactive) | 17.6 µM (inactive) | 23.3 µM (inactive) | 20 µM (inactive) |
| C=C(C)C1CC2(C)C(C)CC(O)CC2C(OC(=O)C=C(C)C)C1O (centres undefined) | > 100 µM (inactive) | 42.4 µM (inactive) | 30.8 µM (inactive) | 16.3 µM (inactive) | 60.5 µM (inactive) | 27.3 | – | 23.2 µM (inactive) | 32.8 µM (inactive) | 29.6 µM (inactive) | 24.5 µM (inactive) | 45.6 µM (inactive) | 30.3 µM (inactive) | 37.6 µM (inactive) | 30.9 µM (inactive) | 19.2 µM (inactive) | 11.6 µM (inactive) | > 10 µM (inactive) | 53.1 µM (inactive) | 29.5 µM (inactive) |
| O=S1(=O)CCN(Cc2ccccn2)CC1 | > 100 µM (inactive) | > 100 µM (inactive) | – | > 100 µM (inactive) | > 100 µM (inactive) | > 100 | > 100 µM (inactive) | > 100 µM (inactive) | > 100 µM (inactive) | > 100 µM (inactive) | > 100 µM (inactive) | > 100 µM (inactive) | > 100 µM (inactive) | > 100 µM (inactive) | > 100 µM (inactive) | > 100 µM (inactive) | > 100 µM (inactive) | > 100 µM (inactive) | > 100 µM (inactive) | > 100 µM (inactive) |
| NC(=O)NCCCC(NC(=O)OCCCCCn1ccc(=O)[nH]c1=O)C(=O)O (centres undefined) | > 100 µM (inactive) | > 100 µM (inactive) | > 100 µM (inactive) | > 100 µM (inactive) | > 100 µM (inactive) | > 100 | > 100 µM (inactive) | > 100 µM (inactive) | > 100 µM (inactive) | > 100 µM (inactive) | > 100 µM (inactive) | – | > 100 µM (inactive) | > 100 µM (inactive) | > 100 µM (inactive) | – | > 100 µM (inactive) | > 100 µM (inactive) | > 100 µM (inactive) | > 100 µM (inactive) |
| COC(=O)c1ccccc1C1CN=NC12Cc1ccc3ccccc3c1C2=O (centres undefined) | > 100 µM (inactive) | > 100 µM (inactive) | 70.5 µM (inactive) | > 100 µM (inactive) | > 100 µM (inactive) | > 100 | – | 97.9 µM (inactive) | > 100 µM (inactive) | > 100 µM (inactive) | > 100 µM (inactive) | 30.8 µM (inactive) | – | > 100 µM (inactive) | 73.8 µM (inactive) | 6.08 µM (inactive) | > 100 µM (inactive) | > 100 µM (inactive) | > 100 µM (inactive) | > 100 µM (inactive) |
| O=C(NCCCCNCCCNC(=O)c1cc(-c2ccccc2)nc2ccccc12)c1cc(-c2ccccc2)nc2ccccc12 | 1.67 µM (inactive) | 9.66 µM (inactive) | 1.62 µM (inactive) | 1.49 µM (inactive) | 1.78 µM (inactive) | 1.82 | 1.63 µM (inactive) | 1.37 µM (inactive) | 1.81 µM (inactive) | 1.64 µM (inactive) | 1.85 µM (inactive) | 1.78 µM (inactive) | 1.98 µM (inactive) | 1.63 µM (inactive) | 2.13 µM (inactive) | 1.44 µM (inactive) | 1.84 µM (inactive) | 1.71 µM (inactive) | 1.73 µM (inactive) | – |
| COc1c(C)c(C/C=C(\C)CCCCO)c(OC)c(OC)c1OC | > 100 µM (inactive) | > 100 µM (inactive) | 45.6 µM (inactive) | > 100 µM (inactive) | > 100 µM (inactive) | > 100 | > 100 µM (inactive) | > 100 µM (inactive) | 24.4 µM (inactive) | > 100 µM (inactive) | > 100 µM (inactive) | – | > 100 µM (inactive) | > 100 µM (inactive) | > 100 µM (inactive) | 88.7 µM (inactive) | > 100 µM (inactive) | > 100 µM (inactive) | > 100 µM (inactive) | > 100 µM (inactive) |
| CCOC(=O)C1CCC(=O)N1C(=O)c1cccc(Cl)c1 (centres undefined) | > 100 µM (inactive) | > 100 µM (inactive) | > 100 µM (inactive) | – | > 100 µM (inactive) | > 100 | > 100 µM (inactive) | > 100 µM (inactive) | > 100 µM (inactive) | > 100 µM (inactive) | > 100 µM (inactive) | > 100 µM (inactive) | > 100 µM (inactive) | > 100 µM (inactive) | > 100 µM (inactive) | > 100 µM (inactive) | > 100 µM (inactive) | > 100 µM (inactive) | > 100 µM (inactive) | – |
| C/C=C\C(C)=C/C(C)C(=O)CC(O)CC1CC(=O)NC(=O)C1 (centres undefined) | 13.5 µM (inactive) | 34.2 µM (inactive) | 10.1 µM (inactive) | 17.1 µM (inactive) | 19.1 µM (inactive) | 13.4 | 12.1 µM (inactive) | 72.8 µM (inactive) | 20.5 µM (inactive) | 21 µM (inactive) | > 42.3 µM (inactive) | – | 23.7 µM (inactive) | 9.31 µM (inactive) | 14 µM (inactive) | 17.9 µM (inactive) | 5.27 µM (inactive) | 20.2 µM (inactive) | 22.2 µM (inactive) | 19.1 µM (inactive) |
| Cc1cc(N2CCCCC2)nc2ccc(Cc3ccc4nc(N5CCCCC5)cc(C)c4c3)cc12 | > 100 µM (inactive) | > 100 µM (inactive) | – | 44.5 µM (inactive) | > 100 µM (inactive) | 79.6 | > 100 µM (inactive) | > 100 µM (inactive) | 32.1 µM (inactive) | > 100 µM (inactive) | > 100 µM (inactive) | > 100 µM (inactive) | > 100 µM (inactive) | > 100 µM (inactive) | > 100 µM (inactive) | 48.4 µM (inactive) | > 100 µM (inactive) | > 100 µM (inactive) | 53.6 µM (inactive) | > 100 µM (inactive) |
| O=C(O)c1nc2ccc(C(F)(F)F)cc2nc1NCc1ccc(F)cc1 | 14.9 µM (inactive) | 25.9 µM (inactive) | 37.3 µM (inactive) | 21.5 µM (inactive) | > 100 µM (inactive) | 21.2 | 19.1 µM (inactive) | 17.1 µM (inactive) | 19.6 µM (inactive) | 22.9 µM (inactive) | 32.4 µM (inactive) | – | 24 µM (inactive) | 26.5 µM (inactive) | 20.1 µM (inactive) | 16.9 µM (inactive) | 35.2 µM (inactive) | 33 µM (inactive) | 22.4 µM (inactive) | > 100 µM (inactive) |
